Reference: the supplement of paper PMC11451515

Test system: NOMO1
Experiment: cell viability relative to DMSO control; higher = less cytotoxic
Conditions: 48 h
How it was run: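 Library compounds in DMSO were pin-dosed into 1536-well plates (5 μl) holding NOMO1 or SEM (500 cells/well) or P12-Ichikawa (1000 cells/well) leukemia cells, across an 11-point threefold series of 47 μM to 0.79 nM. Each cell line had been adapted for at least four passages in each medium. CellTiter-Glo One luminescence was read after 48 h at 37°C. Viability is the per-plate percentage relative to DMSO wells, with cell-free wells as background.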

[1] = RPMI 5 mM glucose + 10% dialyzed FBS, 0.000781 µM
[2] = RPMI 5 mM glucose + 10% dialyzed FBS, 0.00234 µM
[3] = RPMI 5 mM glucose + 10% dialyzed FBS, 0.00702 µM
[4] = RPMI 5 mM glucose + 10% dialyzed FBS, 0.0211 µM
[5] = RPMI 5 mM glucose + 10% dialyzed FBS, 0.0632 µM
[6] = RPMI 5 mM glucose + 10% dialyzed FBS, 0.19 µM
[7] = RPMI 5 mM glucose + 10% dialyzed FBS, 0.569 µM
[8] = RPMI 5 mM glucose + 10% dialyzed FBS, 1.71 µM
[9] = RPMI 5 mM glucose + 10% dialyzed FBS, 5.12 µM
[10] = RPMI 5 mM glucose + 10% dialyzed FBS, 15.4 µM
[11] = RPMI 5 mM glucose + 10% dialyzed FBS, 46.1 µM
[12] = HPLM + 10% dialyzed FBS, 0.000781 µM
[13] = HPLM + 10% dialyzed FBS, 0.00234 µM
[14] = HPLM + 10% dialyzed FBS, 0.00702 µM
[15] = HPLM + 10% dialyzed FBS, 0.0211 µM
[16] = HPLM + 10% dialyzed FBS, 0.0632 µM
[17] = HPLM + 10% dialyzed FBS, 0.19 µM
[18] = HPLM + 10% dialyzed FBS, 0.569 µM
[19] = HPLM + 10% dialyzed FBS, 1.71 µM
[20] = HPLM + 10% dialyzed FBS, 5.12 µM
[21] = HPLM + 10% dialyzed FBS, 15.4 µM
[22] = HPLM + 10% dialyzed FBS, 46.1 µM
[23] = RPMI 5 mM glucose + 10% FBS, 0.000781 µM
[24] = RPMI 5 mM glucose + 10% FBS, 0.00234 µM
[25] = RPMI 5 mM glucose + 10% FBS, 0.00702 µM
[26] = RPMI 5 mM glucose + 10% FBS, 0.0211 µM
[27] = RPMI 5 mM glucose + 10% FBS, 0.0632 µM
[28] = RPMI 5 mM glucose + 10% FBS, 0.19 µM
[29] = RPMI 5 mM glucose + 10% FBS, 0.569 µM
[30] = RPMI 5 mM glucose + 10% FBS, 1.71 µM
[31] = RPMI 5 mM glucose + 10% FBS, 5.12 µM
[32] = RPMI 5 mM glucose + 10% FBS, 15.4 µM
[33] = RPMI 5 mM glucose + 10% FBS, 46.1 µM

SMILES	cell viability [1] [%]	cell viability [2] [%]	cell viability [3] [%]	cell viability [4] [%]	cell viability [5] [%]	cell viability [6] [%]	cell viability [7] [%]	cell viability [8] [%]	cell viability [9] [%]	cell viability [10] [%]	cell viability [11] [%]	cell viability [12] [%]	cell viability [13] [%]	cell viability [14] [%]	cell viability [15] [%]	cell viability [16] [%]	cell viability [17] [%]	cell viability [18] [%]	cell viability [19] [%]	cell viability [20] [%]	cell viability [21] [%]	cell viability [22] [%]	cell viability [23] [%]	cell viability [24] [%]	cell viability [25] [%]	cell viability [26] [%]	cell viability [27] [%]	cell viability [28] [%]	cell viability [29] [%]	cell viability [30] [%]	cell viability [31] [%]	cell viability [32] [%]	cell viability [33] [%]
CCOC(=O)/C=C/[C@H](C[C@@H]1CCNC1=O)NC(=O)[C@@H](CC(=O)[C@@H](NC(=O)c1cc(C)on1)C(C)C)Cc1ccc(F)cc1	119	124	143	118	132	118	130	131	144	155	125	–	–	–	–	–	–	–	–	–	–	–	–	–	–	–	–	–	–	–	–	–	–
Nc1ncnc2c1c(-c1cccc(OCc3ccccc3)c1)cn2C1CC(CN2CCCC2)C1 (configuration not stated)	–	–	–	–	–	–	–	–	–	–	–	113	133	124	124	141	134	119	90.4	94.2	78.1	36.2	–	–	–	–	–	–	–	–	–	–	–
COc1ncc(-c2ccc3c(Nc4cc(Oc5cc(F)cc(F)c5)cc(C(=O)O)c4)c([S+](=O)([O-])NC4CC4)cnc3c2)c(OC)n1	97.2	94.4	94	89	92	102	89.7	86.9	81.1	79.7	75.6	112	111	91.1	106	113	98	95.7	99.3	86.5	77.7	87.2	96.6	102	89.9	95.6	100	84.1	98.3	92.3	81.9	87.7	85.3
CCOC(=O)\C1=C\[C@@H](OC(CC)CC)[C@H](NC(C)=O)[C@@H](N)C1	84.4	93.4	102	87.4	94.9	106	93.6	91.7	99.3	103	87.1	90.4	86.1	94.3	98.9	93.7	107	92.5	93.1	84	86.9	86.4	91.9	92.5	94.9	91.9	95.1	98.9	95.7	102	88.9	103	82.7
COc1cccc2c1CCCC2CCCN1CCN(C2CCCCC2)CC1 (configuration not stated)	89.2	100	98	92.7	93.1	104	92.9	94.8	109	87.9	58	97.9	105	99.9	106	114	138	111	105	96.7	99.7	57	102	107	109	100	99.5	103	103	94	96.2	89.7	66.2
C[C@]12CC[C@H]3[C@@H](CCC/4=C/C(=O)CC[C@]34C)[C@@H]1CC[C@@H]2OC(=O)CCC5CCCC5	94.6	105	116	110	111	116	130	107	116	111	109	90.8	100	103	113	96.1	113	118	104	111	114	110	86.5	107	119	109	101	108	114	113	114	105	109
c1ccc(-c2oc3ncnc(NC[C@@H]4CCCO4)c3c2-c2ccccc2)cc1	–	–	–	–	–	–	–	–	–	–	–	114	113	134	113	134	128	123	126	112	103	62	102	110	112	114	120	120	117	109	110	112	63.8
CCN(c1ccccc1)c1cc(NC)[n+](C)c(C)n1	106	111	112	124	122	116	126	113	103	108	108	121	123	109	120	130	115	116	123	107	109	111	115	104	106	110	101	104	123	122	112	95.5	103
NC(=O)c1ncn([C@@H]2O[C@H](CO)[C@@H](O)[C@H]2O)c1O	122	127	115	113	106	120	118	103	115	118	112	–	–	–	–	–	–	–	–	–	–	–	122	125	114	118	114	136	129	127	112	112	117
CN1CCN(CCOc2cc(OC3CCOCC3)c3c(Nc4c(Cl)ccc5c4OCO5)ncnc3c2)CC1	–	–	–	–	–	–	–	–	–	–	–	134	119	125	131	125	123	134	123	89.4	60.1	71.4	–	–	–	–	–	–	–	–	–	–	–
